Assay results published in paper PMC6821791, “Phase I Trial of Pyragrel, a Novel Thromboxane Synthetase Inhibitor, to Evaluate the Safety, Tolerability, and Pharmacokinetics in Healthy Volunteers” (Frontiers in Pharmacology, 2019).

Key:
[1] = Part I single-ascending-dose plasma pharmacokinetics (HPLC-MS/MS, noncompartmental); format: in vivo, human; conditions: for AUCINF / AUClast / Cl / Cmax / Tmax / Vz / t1/2: Part I, mean ± SD
Experimental: (§1) Pyragrel administration regimens are as follows: In the single-escalating-dose study (Part I), a total of 52 subjects are enrolled to receive one of three treatments (pyragrel, ozagrel, or placebo, diluted in 500 Ml normal saline) as a 3-h i.v. infusion. Six dose levels of pyragrel (30, 60,120, 180, 240, 300 mg) were intravenously infused to healthy subjects. Of the 12 subjects each at the first three dose groups (30, 60, and 120 mg), 8 received pyragrel, 2 received ozagrel (80 mg), and 2 received placebo. Eight subjects were assigned as 4/2/2 for pyragrel, ozagrel, and placebo at the 180 mg level. Only four subjects were enrolled at the 240- and 300-mg group each; all received pyragrel. […] In the saline-volume-changed study (Part II), the safety and pharmacokinetics of pyragrel were assessed by decreasing the volume of dilution saline. Four subjects received a single 3 h infusion of pyragrel 240 mg diluted in 250 ml saline instead of the 500 ml used in Part I. Blood samples were collected at multiple time points before and after the initiation of the infusion in Part I and Part II; 15 blood samples were predetermined as follows: before drug administration (time 0), 0.5, 1, 2, 3 (4 samples collected during infusion), 3.25, 3.5, 4, 5, 7, 9, 11, 15, 24, and 48 h (10 samples collected post infusion) after the initiation of the infusion. In the multiple-dose study (Part III), 12 subjects received a single 3 h infusion of 180 mg pyragrel (diluted in 250 ml saline) on Day 1 and Day 6 and twice 3 h infusion of 180 mg pyragrel from Day 2 to 5; 14 blood samples were collected on Day 1 and Day 6 before drug administration (0 h), 0.5, 1, 2, 3, 3.25, 3.5, 4, 5, 7, 9, 11, 15, 24 h after the initiation of the infusion; moreover, 5 ml cubital vein blood was collected each time right before pyragrel infusion on Day 2 to Day 5. In the 3×3 crossover study (Part IV), 12 subjects were randomized to receive each of the three dosing groups (60, 120, or 240 mg) of pyragrel (diluted with 250 ml saline, 3 h infusion) per period, with a 7-day washout period between doses. Sixteen blood samples were collected as follows: before drug administration (0 h), 0.17, 0.35, 0.5, 1, 2, 3, 3.25, 3.5, 4, 5, 7, 9, 11, 15, and 24 h after the initiation of the infusion at each period. In the prolonged infusion study (Part V), four subjects received continuous 24 h infusion of pyragrel 360 mg (diluted in 600 ml saline); 19 blood samples were collected as follows: before drug administration (0 h), 0.25, 0.5, 1, 2, 4, 8, 12, 16, 20 (nine samples collected during administration), 24.25, 24.5, 25, 26, 28, 30, 32, 36, and 48 h after the initiation of the infusion (details shown in Figure 1 ). In all five cohorts, 5 ml of cubital vein blood was collected with a sodium heparin anticoagulant tube and centrifuged at 3000 r·min^-1. Each plasma sample was divided into two aliquots and stored at −20°C until further bioanalysis. […] Briefly, 10 µl of the extract drug from […] was injected onto a Zorbax EcLipse XDB C18 column (2.1 mm × 150 mm, 5 μm) (Agilent, USA) using isocratic elution with a mobile phase composed of methanol, water, and formic acid (65:35:0.1, v/v/v). Determination of the analytes was achieved by tandem-mass spectrometry with positive electrospray ionization.
(§2) Pharmacokinetic parameters were calculated using the noncompartmental model (NCA module), WinNonlin 6.1 (Pharsight Corporation, Mountain View, CA, USA). Statistical analysis was performed with SPSS 18. The actual dosing and sampling times were utilized in the analysis. Pharmacokinetic parameters were summarized by dose regimens using descriptive statistics, including n, mean, and the coefficient of variation (CV). For Tmax, only n, min, median, and max were reported.

[2] = Part IV 3×3 crossover study, plasma pharmacokinetics; format: in vivo, human; conditions: n=12
Experimental: as §1, §2
In Part IV, a multivariate ANOVA model containing subjects, treatments (60, 120, or 240 mg), periods, and gender was used to analyze log-transformed Cmax and AUC. Tmax was analyzed using various related Friedman nonparametric tests.

[3] = metabolite in plasma after single 3 h i.v. infusion of pyragrel 30 mg, n=8
[4] = metabolite in plasma after single 3 h i.v. infusion of pyragrel 60 mg, n=8
[5] = metabolite in plasma after single 3 h i.v. infusion of pyragrel 120 mg, n=8
[6] = metabolite in plasma after single 3 h i.v. infusion of pyragrel 180 mg, n=4
[7] = metabolite in plasma after single 3 h i.v. infusion of pyragrel 240 mg, n=4
[8] = metabolite in plasma after single 3 h i.v. infusion of pyragrel 300 mg, n=4
[9] = metabolite in plasma after pyragrel 60 mg
[10] = metabolite in plasma after pyragrel 120 mg
[11] = metabolite in plasma after pyragrel 240 mg

COc1cc(CCC(=O)O)ccc1OCc1nc(C)c(C)nc1C [BBS]
Pharmacokinetic process over the dose range ([1]; 30–300 mg dose range): linear | AUCINF [1, 3]: 1016.64 ± 206.08 ng·h/mL | AUClast [1, 3]: 1006.02 ± 209.31 ng·h/mL | Cl [1, 3]: 30.60 ± 6.23 L/h | Cmax [1, 3]: 216.34 ± 48.23 ng/mL | Tmax [1, 3]: 3.22 ± 0.36 h | Vz [1, 3]: 252.46 ± 113.75 L | t1/2 [1, 3]: 5.90 ± 2.84 h | AUCINF [1, 4]: 1815.58 ± 430.74 ng·h/mL | AUClast [1, 4]: 1802.57 ± 421.18 ng·h/mL | Cl [1, 4]: 34.63 ± 7.86 L/h | Cmax [1, 4]: 389.37 ± 90.87 ng/mL | Tmax [1, 4]: 3.25 ± 0.13 h | Vz [1, 4]: 377.35 ± 68.16 L | t1/2 [1, 4]: 7.94 ± 2.48 h | AUCINF [1, 5]: 3566.52 ± 1518.01 ng·h/mL | AUClast [1, 5]: 3553.23 ± 1512.83 ng·h/mL | Cl [1, 5]: 37.91 ± 12.00 L/h | Cmax [1, 5]: 753.36 ± 287.7 ng/mL | Tmax [1, 5]: 3.31 ± 0.18 h | Vz [1, 5]: 369.08 ± 168.49 L | t1/2 [1, 5]: 6.89 ± 2.29 h | AUCINF [1, 6]: 6563.91 ± 1179.31 ng·h/mL | AUClast [1, 6]: 6542.7 ± 1174.8 ng·h/mL | Cl [1, 6]: 28.22 ± 5.92 L/h | Cmax [1, 6]: 1490.69 ± 358.43 ng/mL | Tmax [1, 6]: 3.31 ± 0.24 h | Vz [1, 6]: 301.81 ± 76.25 L | t1/2 [1, 6]: 7.41 ± 0.97 h | AUCINF [1, 7]: 8910.06 ± 3388.83 ng·h/mL | AUClast [1, 7]: 8843.82 ± 3366.35 ng·h/mL | Cl [1, 7]: 29.59 ± 9.55 L/h | Cmax [1, 7]: 1878.22 ± 681.05 ng/mL | Tmax [1, 7]: 3.25 ± 0.20 h | Vz [1, 7]: 374.58 ± 119.99 L | t1/2 [1, 7]: 8.81 ± 0.46 h | AUCINF [1, 8]: 10549.78 ± 3061.74 ng·h/mL | AUClast [1, 8]: 10466.78 ± 3028.35 ng·h/mL | Cl [1, 8]: 30.84 ± 11.23 L/h | Cmax [1, 8]: 2139.28 ± 589.06 ng/mL | Tmax [1, 8]: 3.19 ± 0.13 h | Vz [1, 8]: 345.29 ± 120.76 L | t1/2 [1, 8]: 7.85 ± 1.92 h | AUCINF [2, 9]: 1882.93 ± 534.37 ng·h/mL | AUClast [2, 9]: 1821.9 ± 496.75 ng·h/mL | Cl [2, 9]: 34.77 ± 11.33 L/h | Cmax [2, 9]: 373.16 ± 101.22 ng/mL | Tmax [2, 9]: 3.29 ± 0.18 h | Vz [2, 9]: 261.4 ± 115.98 L | t1/2 [2, 9]: 5.12 ± 1.17 h | AUCINF [2, 10]: 4036.27 ± 1186.62 ng·h/mL | AUClast [2, 10]: 3969.83 ± 1184.3 ng·h/mL | Cl [2, 10]: 32.54 ± 10.86 L/h | Cmax [2, 10]: 837.84 ± 228.5 ng/mL | Tmax [2, 10]: 3.27 ± 0.17 h | Vz [2, 10]: 250.94 ± 149.96 L | t1/2 [2, 10]: 5.08 ± 1.38 h | AUCINF [2, 11]: 9572.13 ± 3748.80 ng·h/mL | AUClast [2, 11]: 9440.71 ± 3717.86 ng·h/mL | Cl [2, 11]: 30.04 ± 16.36 L/h | Cmax [2, 11]: 2041.56 ± 684.12 ng/mL | Tmax [2, 11]: 3.25 ± 0.18 h | Vz [2, 11]: 212.93 ± 126.27 L
